# Laboratory results from patent US20120121540A1 (priority 2007, published 2012).
# Assay: HCV replicon assay (luciferase reporter, ET cell line)
# Type: cell-based
# Conditions: Hepatitis C virus, HCV replicon luciferase activity in ET cells
# Outline: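 EC50 and, via WST-1 cytotoxicity, TC50 were fitted with a Hill-coefficient equation to % inhibition across 10 two-fold dilutions. Compounds at 0.1 nM-[…] with 0.5% DMSO were applied 24 h post-seeding to replicon-bearing ET cells (luc-ubi-neo/NS3-5B, adaptive mutations). Firefly luciferase signal was measured after 48-72 h.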
row,Compound,inhibition at 10 µM [%]
1,"O=C(NCc1cccc(F)c1)NCc1cn2cc(-c3ccoc3)cc(C(F)(F)F)c2n1 [Compound 398, 1-(3-Fluoro-benzyl)-3-(6-furan-3-yl-8-trifluoromethyl-imidazo[1,2-a]pyridine-2-ylmethyl)-urea]",86.9
2,"O=C(c1nc2c(C(F)(F)F)cc(-c3cn[nH]c3)cn2c1Br)N1CCN(c2nccs2)CC1 [Compound 610, [3-Bromo-6-(1H-pyrazol-4-yl)-8-trifluoromethyl-imidazo[1,2-a]pyridin-2-yl]-(4-thiazol-2-yl-piperazin-1-yl)-methanone]",68.7
3,"O=C(NCc1cccs1)c1cc2cc(-c3ccccc3)cc(C(F)(F)F)n2n1 [Compound 107, 5-Phenyl-7-trifluoromethyl-pyrazolo[1,5-a]pyridine-2-carboxylic Acid (thiophen-2-ylmethyl)-amide]",82.4
4,"O=C(NCc1ccccc1F)c1nc2c(C(F)(F)F)cc(-c3ccco3)cn2c1Cl [Compound 201, 3-Chloro-6-furan-2-yl-8-trifluoromethyl-imidazo[1,2-a]pyridine-2-carboxylic acid 2-fluoro-benzylamide]",72.4
5,"O=C(c1nc2c(C(F)(F)F)cc(-c3ccco3)cn2c1Cl)N1CCC(O)(c2ccccc2)C1 (centres unmarked) [Compound 317, (3-Chloro-6-furan-2-yl-8-trifluoromethyl-imidazo[1,2-a]pyridin-2-yl)-(3-hydroxy-3-phenyl-pyrrolidin-1-yl)-methanone]",94.6
6,"O=C(NCc1cccs1)c1nc2c(C(F)(F)F)cc(-c3ccccc3)cn2c1C(F)(F)F [Compound 193, 6-Phenyl-3,8-bis-trifluoromethyl-imidazo[1,2-a]pyridine-2-carboxylic acid (thiophen-2-ylmethyl)-amide]",82.3
7,"O=C(c1nc2c(C(F)(F)F)cc(-c3ccoc3)cn2c1Cl)N1CC=C(c2ncc(CO)s2)CC1 [Compound 573, (3-Chloro-6-furan-3-yl-8-trifluoromethyl-imidazo[1,2-a]pyridine-2-yl)-[4-(5-hydroxymethyl-thiazol-2-yl)-3,6-dihydro-2H-pyridin-1-yl]-methanone]",91.2
8,"O=C(c1nc2c(C(F)(F)F)cc(-c3ccccc3)nn2c1Br)N1CCC(c2ccc(F)cc2)C1 (centres unmarked) [Compound 252, (3-Bromo-6-phenyl-8-trifluoromethyl-imidazo[1,2-b]pyridazin-2-yl)-[3-(4-fluoro-phenyl)-pyrrolidin-1-yl]-methanone]",84.8
9,"CCc1c(C(=O)NCc2cccs2)nc2c(C(F)(F)F)cc(-c3ccco3)cn12 [Compound 194, 3-Ethyl-6-furan-2-yl-8-trifluoromethyl-imidazo[1,2-a]pyridine-2-carboxylic acid (thiophen-2-ylmethyl)-amide]",89.5
10,"O=C(c1nc2c(C(F)(F)F)cc(-c3ccoc3)cn2c1Cl)N1CC=C(c2ccsc2)C1 [Compound 425, (3-Chloro-6-furan-3-yl-8-trifluoromethyl-imidazo[1,2-a]pyridin-2-yl)-(3-thiophen-3-yl-2,5-dihydro-pyrrol-1-yl)-methanone]",99.3
11,"CC(=O)c1cc(C(F)(F)F)c2nc(C(=O)N3CCC(c4cccc(F)c4)C3)c(Cl)n2c1 (centres unmarked) [Compound 642, 1-{3-Chloro-2-[3-(3-fluoro-phenyl)-pyrrolidine-1-carbonyl]-8-trifluoromethyl-imidazo[1,2-a]pyridin-6-yl}-ethanone]",73.8
12,"N#Cc1cc(F)ccc1C1=CCN(C(=O)c2nc3c(C(F)(F)F)cc(-c4ccoc4)cn3c2Cl)CC1 [Compound 570, 2-[1-(3-Chloro-6-furan-3-yl-8-trifluoromethyl-imidazo[1,2-a]pyridine-2-carbonyl)-1,2,3,6-tetrahydro-pyridin-4-yl]-5-fluoro-benzonitrile]",89.1
13,"O=C(Nc1nc2c(C(F)(F)F)cc(-c3ccoc3)cn2c1Cl)c1cccs1 [Compound 356, Thiophene-2-carboxylic acid (3-chloro-6-furan-3-yl-8-trifluoromethyl-imidazo[1,2-a]pyridin-2-yl)-amide]",32.5
14,"O=C(O)Cc1c(C(=O)NCc2cccs2)nc2c(C(F)(F)F)cc(-c3ccoc3)cn12 [Compound 226, {6-Furan-3-yl-2-[(thiophen-2-ylmethyl)-carbamoyl]-8-trifluoromethyl-imidazo[1,2-a]pyridin-3-yl}-acetic Acid]",98.8
15,"CCN(CC)C(=O)c1ccccc1C1=CCN(C(=O)c2nc3c(C(F)(F)F)cc(-c4ccoc4)cn3c2Cl)CC1 [Compound 560, 2-[1-(3-Chloro-6-furan-3-yl-8-trifluoromethyl-imidazo[1,2-a]pyridine-2-carbonyl)-1,2,3,6-tetrahydro-pyridin-4-yl]-N,N-diethyl-benzamide]",80.9
16,"O=C(NCc1cccs1)c1cn2nc(-c3ccccc3)cc(C(F)(F)F)c2n1 [Compound 248, 6-Phenyl-8-trifluoromethyl-imidazo[1,2-b]pyridazine-2-carboxylic Acid (thiophen-2-ylmethyl)-amide]",45.8

row,Compound,inhibition at 10 µM [%]
1,"O=C(N[C@H]1C[C@@H]1c1ccccc1)c1nc2c(C(F)(F)F)cc(-c3ccco3)cn2c1Cl (stereo in doubt) [Compound 188, 3-Chloro-6-furan-2-yl-8-trifluoromethyl-imidazo[1,2-a]pyridine-2-carboxylic acid (2-phenyl-cyclopropyl)-amide]",80.5
2,"O=C(NCc1cccs1)c1nn2c(C(F)(F)F)cc(-c3ccccc3)cc2c1Cl [Compound 122, 3-Chloro-5-phenyl-7-trifluoromethyl-pyrazolo[1,5-a]pyridine-2-carboxylic Acid (thiophen-2-ylmethyl)-amide]",94.3
3,"O=C(c1nc2c(C(F)(F)F)cc(-c3ccoc3)cn2c1Cl)N1CCC(c2cscn2)CC1 [Compound 557, (3-Chloro-6-furan-3-yl-8-trifluoromethyl-imidazo[1,2-a]pyridin-2-yl)-(4-thiazol-4-yl-piperidin-1-yl)-methanone]",93
4,"O=C(c1nc2c(C(F)(F)F)cc(-c3ccoc3)cn2c1Cl)N1CCC(c2ncon2)C1 (centres unmarked) [Compound 417, (3-Chloro-6-furan-3-yl-8-trifluoromethyl-imidazo[1,2-a]pyridine-2-yl)-(3-[1,2,4]oxadiazol-3-yl-pyrrolidin-1-yl)-methanone]",96.5
5,"CC(C)(C)OC(=O)NC1CN(C(=O)c2nc3c(C(F)(F)F)cc(-c4ccoc4)cn3c2Cl)C1 [Compound 489, [1-(3-Chloro-6-furan-3-yl-8-trifluoromethyl-imidazo[1,2-a]pyridine-2-carbonyl)-azetidin-3-yl]-carbamic Acid Tert-butyl Ester]",33
6,"O=C(c1nc2c(C(F)(F)F)cc(-c3ccoc3)cn2c1Cl)N1CC=C(c2cncnc2)CC1 [Compound 618, [3-chloro-6-(furan-3-yl)-8-(trifluoromethyl)imidazo[1,2-a]pyridin-2-yl][4-(pyrimidin-5-yl)-3,6-dihydropyridin-1(2H)-yl]methanone]",95.9
7,"O=C(c1nc2c(C(F)(F)F)cc(-c3cn[nH]c3)cn2c1Cl)N1CC=C(c2cccs2)C1 [Compound 443, [3-Chloro-6-(1H-pyrozol-4-yl)-8-(trifluoromethyl)imidazo[1,2-a]pyridine-2-yl][3-(thiophen-2-yl)-2,5-dihydro-1H-pyrrol-1-yl]methanone]",99.3
8,"O=C(NCc1cccs1)c1nc2c(C(F)(F)F)cc(-c3cccc(F)c3)cn2c1C#Cc1cccnc1 [Compound 305, 6-(3-Fluoro-phenyl)-3-pyridin-3-ylethynyl-8-trifluoromethyl-imidazo[1,2-a]pyridine-2-carboxylic Acid (thiophen-2-ylmethyl)-amide]",59.5
9,"O=C1OC(c2ccccc2)CN1Cc1cn2cc(-c3ccoc3)cc(C(F)(F)F)c2n1 (centres unmarked) [Compound 483, 3-(6-Furan-3-yl-8-trifluoromethyl-imidazo[1,2-a]pyridin-2-ylmethyl)-5-phenyl-oxazolidin-2-one]",99.9
10,"O=C(c1nc2c(C(F)(F)F)cc(-c3ccco3)cn2c1Cl)N1CCCC(c2ccccc2)C1 (centres unmarked) [Compound 216, (3-Chloro-6-furan-2-yl-8-trifluoromethyl-imidazo[1,2-a]pyridin-2-yl)-(3-phenyl-piperidin-1-yl)-methanone]",60.3
11,"O=S(=O)(Cc1ccccc1)Nc1nc2c(C(F)(F)F)cc(-c3ccco3)cn2c1Cl [Compound 363, N-(3-Chloro-6-furan-2-yl-8-trifluoromethyl-imidazo[1,2-a]pyridin-2-yl)-C-phenyl-methanesulfonamide]",12.6
12,"N#Cc1c(F)ccc(F)c1C1=CCN(C(=O)c2nc3c(C(F)(F)F)cc(-c4ccoc4)cn3c2Cl)CC1 [Compound 635, 2-(1-{[3-chloro-6-(furan-3-yl)-8-(trifluoromethyl)imidazo[1,2-a]pyridin-2-yl]carbonyl}-1,2,3,6-tetrahydropyridin-4-yl)-3,6-difluorobenzonitrile]",95.9
13,"O=C(NCc1cccs1)c1nc2c(C(F)(F)F)cc(-c3ccoc3)cn2c1Cl [Compound 157, 3-Chloro-6-furan-3-yl-8-trifluoromethyl-imidazo[1,2-a]pyridine-2-carboxylic acid (thiophen-2-ylmethyl)-amide]",97.8
14,"O=C(c1nc2c(C(F)(F)F)cc(-c3ccoc3)cn2c1Cl)N1CC=C(c2ccn[nH]2)CC1 [Compound 584, (3-Chloro-6-furan-3-yl-8-trifluoromethyl-imidazo[1,2-a]pyridin-2-yl)-[4-(2H-pyrazol-3-yl)-3,6-dihydro-2H-pyridin-1-yl]methanone]",72.5
15,"O=C(NCc1cccs1)c1nc2c(C(F)(F)F)cc(-c3ccccc3)nc2[nH]1 [Compound 103, 5-Phenyl-7-trifluoromethyl-3H-imidazo[4,5-b]pyridine-2-carboxylic acid (thiophen-2-ylmethyl)-amide]",54.7
16,"C[C@H](NC(=O)c1nc2c(C(F)(F)F)cc(-c3ccoc3)cn2c1Cl)c1ccccc1 [Compound 412, 3-Chloro-6-furan-3-yl-8-trifluoromethyl-imidazo[1,2-a]pyridine-2-carboxylic Acid (1-phenyl-ethyl)-amide]",85
